Assay results reported in patent publication US20060069132A1, “Azolecarboxamide herbicides” (priority 2004, published 2006).

Key:
[1] = test system: wheat; assay: Test B postemergence herbicide test; assay type: in vivo, Triticum aestivum; set-up: key to Wheat plant response rating: 0 = no effect, 100 = complete control
Procedure, shortened: (§1)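 Formulated test chemicals went onto postemergence plants measuring 2 to 18 cm, at one to four leaves. For the paddy assay, species had reached two leaves. Scoring took place 13–15 days later by eye, relative to untreated plants, using 0 for no effect up to 100 for full control.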

[2] = test system: pigweed; assay: Test B pre-/postemergence herbicide test; assay type: in vivo, Amaranthus retroflexus; conditions: for Pigweed plant response rating: scale 0 (no effect) to 100 (complete control)
Procedure, shortened: (§2)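 Flooded paddy rice and barnyardgrass were treated at the 2-leaf stage; upland plantings received compound either on sown seed or on 1- to 4-leaf seedlings. All were kept 13–15 days in a greenhouse and scored visually, 0–100, relative to untreated plants.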

[3] = test system: velvetleaf; assay: Test B pre-/postemergence herbicide test; assay type: in vivo, Abutilon theophrasti; conditions: for Velvetleaf plant response rating: scale 0 (no effect) to 100 (complete control)
Procedure, shortened: as §2

[4] = test system: rice; assay: Test B flooded paddy test; assay type: in vivo, Oryza sativa; conditions: 1000 g ai/ha, scale 0 to 100 (0 no effect, 100 complete control)
Procedure, shortened: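 After treating 2-leaf paddy plants or 2–18 cm postemergence plants (1 to 4 leaves) with formulated chemical, researchers kept them in a greenhouse for 13–15 days. Effects were judged visually versus controls: 0 indicates none, 100 total control.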

[5] = test system: giant foxtail; assay: Test B pre-/postemergence herbicide test; assay type: in vivo, Setaria faberi; conditions: for Foxtail, Giant plant response rating: scale 0 (no effect) to 100 (complete control)
Procedure, shortened: as §2

[6] = test system: cocklebur; assay: Test B pre-/postemergence herbicide test; assay type: in vivo, Xanthium strumarium; conditions: for Cocklebur plant response rating: scale 0 (no effect) to 100 (complete control)
Procedure, shortened: (§3)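 Plants compared with untreated controls 13–15 days post-treatment and given a visual 0–100 injury score. Applications: preemergence to seeds; postemergence at 1- to 4-leaf (2–18 cm); paddy species flooded, 2-leaf stage. Vehicle non-phytotoxic, surfactant included.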

[7] = test system: blackgrass; assay: Test B postemergence herbicide test; assay type: in vivo, Alopecurus myosuroides; conditions: scale 0 (no effect) to 100 (complete control)
Procedure, shortened: as §1

[8] = test system: barnyardgrass; assay: Test B flooded paddy test; assay type: in vivo, Echinochloa crus-galli; conditions: 1000 g ai/ha, scale 0 to 100 (0 no effect, 100 complete control)
Procedure, shortened: as §1

[9] = test system: wild oat; assay: Test B postemergence herbicide test; assay type: in vivo, Avena fatua; conditions: scale 0 (no effect) to 100 (complete control)
Procedure, shortened: as §1

[10] = test system: morningglory; assay: Test B pre-/postemergence herbicide test; assay type: in vivo, Ipomoea coccinea; conditions: for Morningglory plant response rating: scale 0 (no effect) to 100 (complete control)
Procedure, shortened: as §3

[11] = test system: lambsquarters; assay: Test B pre-/postemergence herbicide test; assay type: in vivo, Chenopodium album; conditions: for Lambsquarters plant response rating: scale 0 (no effect) to 100 (complete control)
Procedure, shortened: as §2

[12] = test system: ducksalad; assay: Test B flooded paddy test; assay type: in vivo, Heteranthera limosa; conditions: 1000 g ai/ha, scale 0 to 100 (0 no effect, 100 complete control)
Procedure, shortened: as §1

[13] = test system: barnyardgrass; assay: Test B pre-/postemergence herbicide test; assay type: in vivo, Echinochloa crus-galli; conditions: for Barnyardgrass plant response rating: scale 0 (no effect) to 100 (complete control)
Procedure, shortened: as §3

[14] = test system: Surinam grass; assay: Test B pre-/postemergence herbicide test; assay type: in vivo, Urochloa decumbens; conditions: for Surinam Grass plant response rating: scale 0 (no effect) to 100 (complete control)
Procedure, shortened: as §2

[15] = test system: small flower umbrella sedge; assay: Test B flooded paddy test; assay type: in vivo, Cyperus difformis; conditions: 1000 g ai/ha, scale 0 to 100 (0 no effect, 100 complete control)
Procedure, shortened: as §1

[16] = 125 g ai/ha, 0 is no effect, 100 is complete control, preemergence
[17] = 125 g ai/ha, visual rating, postemergence

CCNC(=O)c1ccc(F)c(N(C(C)=O)C(=O)c2cc(C(C)(C)C)nn2CC)c1 [Compound 399]
90: Barnyardgrass plant response rating [8] | Ducksalad plant response rating [12] | Plant response rating (0 to 100 scale), Barnyardgrass [13, 16] | Plant response rating (0 to 100 scale), Surinam Grass [14, 16]
40: Oat, Wild plant response rating ([9]; Postemergence, 500 g ai/ha) | Morningglory plant response rating ([10]; Postemergence, 500 g ai/ha) | Barnyardgrass plant response rating ([13]; Postemergence, 500 g ai/ha) | Surinam Grass plant response rating ([14]; Postemergence, 500 g ai/ha)
60: Pigweed plant response rating [2, 17] | Cocklebur plant response rating [6, 17]
10: Wheat plant response rating ([1]; 125 g ai/ha, visual rating, scale 0 (no effect) to 100 (complete control), postemergence) | Plant response rating (0 to 100 scale), Morningglory [10, 16] | Barnyardgrass plant response rating [13, 17]
100: Wheat plant response rating ([1]; 500 g ai/ha, scale 0 to 100, 0 no effect, 100 complete control, preemergence) | Plant response rating (0 to 100 scale), Pigweed [2, 16] | Plant response rating (0 to 100 scale), Foxtail, Giant [5, 16] | Plant response rating (0 to 100 scale), Lambsquarters [11, 16] | Lambsquarters plant response rating ([11]; Postemergence, 500 g ai/ha)
20: Velvetleaf plant response rating [3, 17] | Oat, Wild plant response rating [9, 17] | Morningglory plant response rating [10, 17] | Surinam Grass plant response rating [14, 17]
80: Pigweed plant response rating ([2]; Postemergence, 500 g ai/ha) | Plant response rating (0 to 100 scale), Velvetleaf [3, 16] | Velvetleaf plant response rating ([3]; Postemergence, 500 g ai/ha) | Rice plant response rating [4] | Cocklebur plant response rating ([6]; Postemergence, 500 g ai/ha) | Lambsquarters plant response rating [11, 17] | Sedge, Umbrella plant response rating [15]
50: Foxtail, Giant plant response rating ([5]; Postemergence, 500 g ai/ha) | Plant response rating (0 to 100 scale), Cocklebur [6, 16]
70: Blackgrass plant response rating ([7]; Postemergence, 500 g ai/ha)
30: Wheat plant response rating ([1]; Postemergence, 500 g ai/ha, scale 0 (no effect) to 100 (complete control)) | Foxtail, Giant plant response rating [5, 17] | Blackgrass plant response rating [7, 17]
